According to patent US5453518A, “Flavone derivatives” (Recordati S.A., Chemical and Pharmaceutical Company, priority 1992, dated 1995):
Like-named read-outs stand apart in the source and are kept apart here.

Columns and labels:
[1] = system: rat bladder (K^+ -induced contractions); assay: Inhibition of K^+ -induced rat bladder contractions; parameters: species or system rat (male Sprague Dawley); settings: 0.5 h, KCl 80 mM, 30 min after drug, isolated rat bladder
Description: Female Albino Swiss mice [Crl: CD-1 (ICR) BR] with a body weight of 20-30 g and male Sprague Dawley rats [Crl: CD° BR] with a body weight of 200-300 g, from the Charles River Farm, Italy, were used for the trials. The animals were housed with free access to food and water and kept on a forced light-darkness cycle at 22°-24° C. until the day of the trials. Male rats were killed by a blow on their heads and their lower abdomens were opened along the midlines. Their urinary bladders were removed by a transverse dissection above the trigone and cut into two fragments (20-30 mm long, 1-2 mm wide). Each fragment was suspended in an isolated organ bath containing 10 ml of a normal Tyrode solution (composition in mM: NaCl 137, KCl 2.68, MgCl2 1.11, CaCl2 1.8, NaH2 PO4 0.41, NaHCO3 11.9, glucose 5.55) and connected, under a steady 1 g load, to an isometric transducer (DY-1, Basile). The solution was gassed with a mixture of 95% O2 and 5% CO2 and heated at 37° C. After a 60 minute equilibration the tension responses to a single KCl dose (Bath concentration=80 mM) inducing phasic and tonic contractions were measured under isometric conditions at 30 minute intervals. After recording one or more reproducible responses, a solution of the test drug was added to the bath (final concentration from 10^-4 to 10^-9 M) and 30 minutes later a new contraction was induced. The experimental groups were made up of at least 2 preparations from different animals for each drug concentration tested. The IC50 values of the inhibition of the agonist-induced contractions were evaluated by linear regression analysis.

[2] = in words, background; cited from earlier work
[3] = in words, background; cited from earlier work; remark: listed apart in the source

IC50 ([1]; phasic contraction, read-out: IC50, inhibition of K^+ -induced rat bladder contractions, Phasic): 13 µM
IC50 ([1]; tonic contraction, read-out: IC50, inhibition of K^+ -induced rat bladder contractions, Tonic): 13 µM
Structure (SMILES): Cc1c(-c2ccccc2)oc2c(C(=O)OCCN3CCCCC3)cccc2c1=O [Flavoxate, 8-(2-(N-piperidino)ethoxycarbonyl)-3-methyl-4-oxo-2-phenyl-4H-1-benzopyran, reference compound]
stability in physiological fluids [2]: low stability in physiological fluids
anticholinergic effects [3]: practical absence of anticholinergic effects
